Where two headings read alike, the source gives them in different places.
How the values were obtained:
[1] = tested on: Key Grass and Sedge Weeds as well as Grass Crops; assay: Post-Emergent Test II (Table 6); format: in vivo; details: post-emergence, 336 h, 14 days after application; for pest or weed control at 70 g/ha: 70 g ai/ha; for pest or weed control at 140 g/ha: 140 g ai/ha
Summary of the method: (§1)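 Visual injury ratings (0 = no injury, 100 = complete kill) were taken 14 days after treatment relative to untreated plants. Seedlings at the first or second true leaf stage received an overhead spray at 187 L/ha, and solvent-blank sprayed plants served as controls.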

[2] = tested on: Key Broadleaf Weed and Crop Species; assay: Post-Emergent Test II (Table 5); format: in vivo; details: post-emergence, 336 h; for pest or weed control at 70 g/ha: application rate 70 (kg ai/ha; footnote: g ai/ha); for pest or weed control at 140 g/ha: application rate 140 (kg ai/ha; footnote: g ai/ha)
Summary of the method: as §1

[3] = CYPSS, read-out: Visual Growth Reduction (%) 14 Days After Application CYPSS
[4] = DIGSA: crabgrass (Digitaria sanguinalis), read-out: Visual Growth Reduction (%) 14 Days After Application DIGSA
[5] = ECHSS, read-out: Visual Growth Reduction (%) 14 Days After Application ECHSS
[6] = ORYSS (crop), read-out: Visual Growth Reduction (%) 14 Days After Application ORYSS
[7] = SETFA: giant foxtail (Setaria faberi), read-out: Visual Growth Reduction (%) 14 Days After Application SETFA
[8] = SORVU: grain sorghum (Sorghum vulgare), read-out: Visual Growth Reduction (%) 14 Days After Application SORVU
[9] = TRZSS (crop), read-out: Visual Growth Reduction (%) 14 Days After Application TRZSS
[10] = ZEAMX: maize, corn (Zea mays), read-out: Visual Growth Reduction (%) 14 Days After Application ZEAMX
[11] = Abutilon theophrasti, ABUTH: velvetleaf (Abutilon theophrasti), read-out: Visual Growth Reduction (%) 14 Days After Application ABUTH
[12] = Amaranthus retroflexus, AMARE: redroot pigweed (Amaranthus retroflexus), read-out: Visual Growth Reduction (%) 14 Days After Application AMARE
[13] = Brassica napus, BRSSS: oilseed rape, canola (Brassica napus), read-out: Visual Growth Reduction (%) 14 Days After Application BRSSS
[14] = Chenopodium album, CHEAL: lambsquarters (Chenopodium album), read-out: Visual Growth Reduction (%) 14 Days After Application CHEAL
[15] = Euphorbia heterophylla, EPHHL: wild poinsettia (Euphorbia heterophylla), read-out: Visual Growth Reduction (%) 14 Days After Application EPHHL
[16] = Helianthus annuus, HELAN: sunflower (Helianthus annuus), read-out: Visual Growth Reduction (%) 14 Days After Application HELAN
[17] = Viola tricolor, VIOTR: wild pansy (Viola tricolor), read-out: Visual Growth Reduction (%) 14 Days After Application VIOTR

COC(=O)c1nc(-c2ccc(Cl)c(F)c2C(F)F)cc(N)c1Cl [Compound 53, methyl 4-amino-3-chloro-6-(4-chloro-2-(difluoromethyl)-3-fluorophenyl)picolinate]
pest or weed control at 70 g/ha [1, 3]: 0 to 29%
pest or weed control at 140 g/ha [1, 3]: 0 to 29%
pest or weed control at 70 g/ha [1, 4]: 0 to 29%
pest or weed control at 140 g/ha [1, 4]: 0 to 29%
pest or weed control at 70 g/ha [1, 5]: 0 to 29%
pest or weed control at 140 g/ha [1, 5]: 0 to 29%
pest or weed control at 70 g/ha [1, 6]: 0 to 29%
pest or weed control at 140 g/ha [1, 6]: 0 to 29%
pest or weed control at 70 g/ha [1, 7]: 0 to 29%
pest or weed control at 140 g/ha [1, 7]: 0 to 29%
pest or weed control at 70 g/ha [1, 8]: 0 to 29%
pest or weed control at 140 g/ha [1, 8]: 0 to 29%
pest or weed control at 70 g/ha [1, 9]: 0 to 29%
pest or weed control at 140 g/ha [1, 9]: 0 to 29%
pest or weed control at 70 g/ha [1, 10]: 0 to 29%
pest or weed control at 140 g/ha [1, 10]: 0 to 29%
pest or weed control at 70 g/ha [2, 11]: 85 to 94%
pest or weed control at 140 g/ha [2, 11]: 0 to 29%
pest or weed control at 70 g/ha [2, 12]: 95 to 100%
pest or weed control at 140 g/ha [2, 12]: 95 to 100%
pest or weed control at 70 g/ha [2, 13]: 45 to 59%
pest or weed control at 140 g/ha [2, 13]: 45 to 59%
pest or weed control at 70 g/ha [2, 14]: 95 to 100%
pest or weed control at 140 g/ha [2, 14]: 95 to 100%
pest or weed control at 70 g/ha [2, 15]: 0 to 29%
pest or weed control at 140 g/ha [2, 15]: 0 to 29%
pest or weed control at 70 g/ha [2, 16]: 60 to 74%
pest or weed control at 140 g/ha [2, 16]: 75 to 84%
pest or weed control at 70 g/ha [2, 17]: 0 to 29%
pest or weed control at 140 g/ha [2, 17]: 0 to 29%

COC(=O)c1nc(-c2ccc(Br)nc2)c(F)c(N)c1Cl [Compound 22, methyl 4-amino-6′-bromo-5-chloro-3-fluoro-[2,3′-bipyridine]-6-carboxylate]
pest or weed control at 70 g/ha [1, 3]: 95 to 100%
pest or weed control at 140 g/ha [1, 3]: 95 to 100%
pest or weed control at 70 g/ha [1, 4]: 85 to 94%
pest or weed control at 140 g/ha [1, 4]: 85 to 94%
pest or weed control at 70 g/ha [1, 5]: 85 to 94%
pest or weed control at 140 g/ha [1, 5]: 95 to 100%
pest or weed control at 70 g/ha [1, 6]: 30 to 44%
pest or weed control at 140 g/ha [1, 6]: 0 to 29%
pest or weed control at 70 g/ha [1, 7]: 85 to 94%
pest or weed control at 140 g/ha [1, 7]: 85 to 94%
pest or weed control at 70 g/ha [1, 8]: 95 to 100%
pest or weed control at 140 g/ha [1, 8]: 95 to 100%
pest or weed control at 70 g/ha [1, 9]: 85 to 94%
pest or weed control at 140 g/ha [1, 9]: 95 to 100%
pest or weed control at 70 g/ha [1, 10]: 85 to 94%
pest or weed control at 140 g/ha [1, 10]: 95 to 100%
pest or weed control at 70 g/ha [2, 11]: 95 to 100%
pest or weed control at 140 g/ha [2, 11]: 95 to 100%
pest or weed control at 70 g/ha [2, 12]: 95 to 100%
pest or weed control at 140 g/ha [2, 12]: 95 to 100%
pest or weed control at 70 g/ha [2, 13]: 95 to 100%
pest or weed control at 140 g/ha [2, 13]: 95 to 100%
pest or weed control at 70 g/ha [2, 14]: 95 to 100%
pest or weed control at 140 g/ha [2, 14]: 95 to 100%
pest or weed control at 70 g/ha [2, 15]: 95 to 100%
pest or weed control at 140 g/ha [2, 15]: 95 to 100%
pest or weed control at 70 g/ha [2, 16]: 85 to 94%
pest or weed control at 140 g/ha [2, 16]: 95 to 100%
pest or weed control at 70 g/ha [2, 17]: 95 to 100%
pest or weed control at 140 g/ha [2, 17]: 95 to 100%

Nc1cc(-c2ccc(Cl)c(F)c2C(=O)O)nc(C(=O)O)c1Cl [Compound 56, 4-Amino-6-(2-carboxy-4-chloro-3-fluorophenyl)-3-chloropicolinic acid]
pest or weed control at 70 g/ha [1, 3]: 0 to 29%
pest or weed control at 140 g/ha [1, 3]: 0 to 29%
pest or weed control at 70 g/ha [1, 4]: 0 to 29%
pest or weed control at 140 g/ha [1, 4]: 0 to 29%
pest or weed control at 70 g/ha [1, 5]: 0 to 29%
pest or weed control at 140 g/ha [1, 5]: 0 to 29%
pest or weed control at 70 g/ha [1, 6]: 0 to 29%
pest or weed control at 140 g/ha [1, 6]: 0 to 29%
pest or weed control at 70 g/ha [1, 7]: 0 to 29%
pest or weed control at 140 g/ha [1, 7]: 0 to 29%
pest or weed control at 70 g/ha [1, 8]: 0 to 29%
pest or weed control at 140 g/ha [1, 8]: 0 to 29%
pest or weed control at 70 g/ha [1, 9]: 0 to 29%
pest or weed control at 140 g/ha [1, 9]: 0 to 29%
pest or weed control at 70 g/ha [1, 10]: 0 to 29%
pest or weed control at 140 g/ha [1, 10]: 0 to 29%
pest or weed control at 70 g/ha [2, 11]: 0 to 29%
pest or weed control at 140 g/ha [2, 11]: 0 to 29%
pest or weed control at 70 g/ha [2, 12]: 0 to 29%
pest or weed control at 140 g/ha [2, 12]: 0 to 29%
pest or weed control at 70 g/ha [2, 13]: 0 to 29%
pest or weed control at 140 g/ha [2, 13]: 0 to 29%
pest or weed control at 70 g/ha [2, 14]: 45 to 59%
pest or weed control at 140 g/ha [2, 14]: 75 to 84%
pest or weed control at 70 g/ha [2, 15]: 0 to 29%
pest or weed control at 140 g/ha [2, 15]: 0 to 29%
pest or weed control at 70 g/ha [2, 16]: 0 to 29%
pest or weed control at 140 g/ha [2, 16]: 0 to 29%
pest or weed control at 70 g/ha [2, 17]: 0 to 29%
pest or weed control at 140 g/ha [2, 17]: 0 to 29%
